A short description of series [1]: Liver microsomal stability, human. The format is in vitro ADME. The settings on record: pH 7.4; human liver microsomes, 0.5 mg/mL protein, 1 μM compound, NADPH; >80% remaining at 45 min denoted >140; read-out: Liver Microsomal Stability: t1/2 (min); human. The method in brief:
(§1)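 Pooled liver microsomes (0.5 mg/mL protein) in 0.1 M phosphate pH 7.4 with 1 μM compound (0.25% DMSO), started with 1 mM NADPH at 37° C; sampled 0-45 min, minus-NADPH control 45 min. LC-MS/MS depletion slope gave t1/2 and CLint.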

Another series in a line: Cell cytotoxicity CC50. The format is cell-based. As to conditions: human; mean of at least two experiments.
Series [2] is described as follows: Liver hepatocyte stability, rat. The settings on record: rat hepatocytes, 3 μM compound, 60 min, >80% remaining at 60 min denoted >186, read-out: Liver Hepatocyte Stability: t1/2 (min). The series is classed as in vitro ADME. How it is done:
(§2) Cryopreserved pooled hepatocytes were purchased from a reputable commercial supplier and stored in liquid nitrogen prior to use. Williams E media supplemented with 2 mM L-glutamine and 25 mM HEPES and test compound (final substrate concentration 3 μM; final DMSO concentration 0.25%) are pre-incubated at 37° C. prior to the addition of a suspension of cryopreserved hepatocytes (final cell density 0.5×10^6 viable cells/mL in Williams E media supplemented with 2 mM L-glutamine and 25 mM HEPES) to initiate the reaction. The final incubation volume is 500 μL. Two control compounds were included with each species, alongside appropriate vehicle control. The reactions are stopped by transferring 50 μL of incubate to 100 μL acetonitrile containing internal standard at the appropriate time points. Samples were removed at 6 time points (0, 5, 15, 30, 45 and 60 min) over the course of a 60 min experiment. The termination plates are centrifuged at 2500 rpm at 4° C. for 30 min to precipitate the protein. Following protein precipitation, the sample supernatants were combined in cassettes of up to 4 compounds and analysed using generic LC-MS/MS conditions. From a plot of ln peak area ratio (compound peak area/internal standard peak area) against time, the gradient of the line is determined. Subsequently, half-life (t1/2) and intrinsic clearance (CLint) were calculated.

The nature of series [3]: Liver hepatocyte stability, dog. The settings on record: dog hepatocytes, 3 μM compound, 60 min, >80% remaining at 60 min denoted >186, read-out: Liver Hepatocyte Stability: t1/2 (min). The series is classed as in vitro ADME. How it is done: as §2
Series [4] is described as follows: Rat pharmacokinetics in vivo. As to conditions: male Sprague Dawley rats; for C 8 h / Cmax: doses 1 mg/kg (IV) and 10 mg/kg (PO); for Vd / clearance / bioavailability / half-life / AUC(0-t) / Cmax: rat, in vivo; for AUC(0-t): read-out: PO AUClast. How it is done:
The pharmacokinetics of compounds were studied in vivo in rats at doses of 1 mg/kg (IV) and 10 mg/kg (PO).
Male rats (Sprague Dawley) surgically prepared with a jugular vein cannula were treated with experimental compounds via intravenous administration (IV; n=3; 1 mg/kg) or oral administration (PO; n=3; 10 mg/kg). Compounds were formulated as a solution in 40:60 dimethylacetamide:saline (IV administration), a suspension in 1% methyl cellulose (viscosity: 15 cP), 0.1% Tween80 in water (PO administration: Example 3), a solution in 10% DMSO/10% Cremaphor/80% water (PO administration: Examples 4, 11, 21, 23, 25, 26, 32) or a solution in 10% DMSO/20% Cremaphor/70% water (PO administration: Examples 19, 20, 22, 24, 30). […] Serial blood samples were collected via the cannula at 0.02, 0.08, 0.25, 0.5, 1, 2, 4, 6, 8 and 24 h post IV dosing of compound, and at 0.08, 0.25, 0.5, 1, 2, 4, 6, 8 and 24 h post oral dosing of compound, and plasma was prepared by centrifugation and stored immediately at −80° C. Samples were subsequently thawed, prepared for analysis by protein precipitation with acetonitrile, and analysed by tandem LCMS using electrospray ionisation using a matrix-matched calibration curve. PK parameters were calculated from the resulting data.

In another series the test system is RSV A2. The experiment in a line: RSV plaque reduction assay. As to conditions: human respiratory syncytial virus, HepG2; Hep-G2 cells, RSV A2, mean of at least two experiments. The series is classed as cell-based, respiratory syncytial virus (RSV). The method in brief: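 RSV A2 (100 PFU/well) premixed with eight serial compound dilutions, added to confluent Hep-G2 monolayers for 2 h at 37° C, then held 2 days under CMC overlay containing compound (DMEM, 2% FBS). Plaques immunostained (HRP/TrueBlue) and counted; EC50 is 50% reduction versus virus control from 4-parameter fit, mean of ≥2 experiments.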

Series [5] is described as follows: Liver hepatocyte stability, human. The series is classed as in vitro ADME. As to conditions: human hepatocytes, 3 μM compound, 60 min, >80% remaining at 60 min denoted >186, read-out: Liver Hepatocyte Stability: t1/2 (min). How it is done:
as §2

Series [6] is described as follows: Liver microsomal stability, rat. The settings on record: pH 7.4; rat liver microsomes, 0.5 mg/mL protein, 1 μM compound, NADPH; >80% remaining at 45 min denoted >140; read-out: Liver Microsomal Stability: t1/2 (min); rat. The format is in vitro ADME. The procedure, abridged: as §1
For orientation: Liver microsomes are a subcellular fraction often used to study metabolism.

A short description of series [7]: Liver microsomal stability, dog. The format is in vitro ADME. The settings on record: pH 7.4; dog liver microsomes, 0.5 mg/mL protein, 1 μM compound, NADPH; >80% remaining at 45 min denoted >140; read-out: Liver Microsomal Stability: t1/2 (min); dog. The procedure, abridged:
as §1

Setting [8] is: IV 1 mg/kg, read-out: IV t½ (converted).
The mark [9] stands for this setting: PO 10 mg/kg, read-out: PO t½ (converted).

In general, CC50 refers to the concentration giving 50% cytotoxicity. A high value points to better tolerance by the cells. One may read the Vd as a proportionality between amount in the body and measured concentration, not a real space. The low end stands for little distribution into tissue, the high end for wide distribution into tissue. For orientation: clearance means the volume of plasma or blood freed of the substance per unit of time. A high value points to efficient removal. Usually bioavailability stands for the share of a dose that reaches the circulation, judged against a reference dose that is usually intravenous. Low readings indicate little systemic uptake, high ones much systemic uptake. The Cmax is the highest concentration seen after dosing. For orientation: EC50 means the concentration that produces a half-maximal response. As to `CCn1ncc(C(=O)N[C@H]2N=C(c3ccccc3)c3cccc(F)c3NC2=O)c1-c1ccc(NC2CC2)nc1F` [Example 11, 5-[6-(Cyclopropylamino)-2-fluoropyridin-3-yl]-1-ethyl-N-[(3S)-9-fluoro-2-oxo-5-phenyl-1,3-dihydro-1,4-benzodiazepin-3-yl]pyrazole-4-carboxamide], the half-life is 82.4 min in [1]; 151 min in series [2]; 48.2 min in series [3]; 192 min in series [4] (setting [8]); 132 min in series [4] (setting [9]); 194 min in [5]. Further, the half-life in series [6] is 76.3 min; in series [7], 24 min. Also, the CC50 in “Cell cytotoxicity CC50” is > 25 µM. Besides, the “C 8 h” value in [4] was 673 ng/mL. This compound displayed a Vd in [4] (IV 1 mg/kg) of 2 L/kg. The compound further gave a clearance in series [4] (IV 1 mg/kg) of 13.9 mL/min/kg. In series [4] (IV 1 mg/kg, PO 10 mg/kg), this compound registered a bioavailability of 93%. Also, the AUC(0-t) in series [4] (PO 10 mg/kg) came to 11200 ng·h/mL. Also, the Cmax in series [4] was 984 ng/mL. Also, a half-maximal effect with RSV A2 (EC50) was put at 62 nM.

On to `O=C(N[C@H]1N=C(c2ccccc2)c2cccc(F)c2NC1=O)c1cnn(C2COC2)c1-c1ccc(NC2CC2)nc1F` [Example 19, 5-[6-(Cyclopropylamino)-2-fluoropyridin-3-yl]-1-(oxetan-3-yl)-N-[(3S)-9-fluoro-2-oxo-5-phenyl-1,3-dihydro-1,4-benzodiazepin-3-yl]pyrazole-4-carboxamide], for which the half-life in series [1] is 154 min; in series [2], 185 min; in series [3] it was 72.2 min; in [4] (setting [8]) it was 102 min; in [4] (setting [9]), 180 min; in series [5], > 186 min. Moreover, the half-life in [6] is > 140 min; in series [7], 90.8 min. The CC50 in “Cell cytotoxicity CC50” was > 25 µM. In series [4], the “C 8 h” value is listed as 315 ng/mL. In series [4] (IV 1 mg/kg), the Vd is 1.6 L/kg. In [4] (IV 1 mg/kg), the clearance is 14.3 mL/min/kg. The bioavailability in series [4] (IV 1 mg/kg, PO 10 mg/kg) was determined as 64.6%. Moreover, the AUC(0-t) in series [4] (PO 10 mg/kg) stood at 7290 ng·h/mL. This compound also had a Cmax in series [4] of 1320 ng/mL. The compound further had an EC50 in the series with RSV A2 of 37 nM.

`O=C(N[C@H]1N=C(c2ccccc2)c2ccccc2NC1=O)c1cnn(C2CCOCC2)c1-c1ccc(NC2CC2)nc1F` [Example 20, 5-[6-(Cyclopropylamino)-2-fluoropyridin-3-yl]-N-[(3S)-2-oxo-5-phenyl-1,3-dihydro-1,4-benzodiazepin-3-yl]-1-(oxan-4-yl)pyrazole-4-carboxamide]: the half-life in series [1] is 83.1 min; in series [2], 115 min; in [3] it was > 186 min; in [4] (setting [8]), 90 min; in series [4] (setting [9]) it was 84 min; in series [5], 190 min. Also, the results for the half-life in [6] and in series [7] were 116 min and 325 min, respectively. Besides, the CC50 in “Cell cytotoxicity CC50” was > 25 µM. Further, the “C 8 h” value in series [4] worked out at 25.7 ng/mL. The Vd in series [4] (IV 1 mg/kg) came out at 2.9 L/kg. In addition, in series [4] (IV 1 mg/kg), the clearance stood at 32.9 mL/min/kg. Also, the bioavailability in [4] (IV 1 mg/kg, PO 10 mg/kg) was 23.9%. Moreover, in series [4] (PO 10 mg/kg), the AUC(0-t) was found to be 1170 ng·h/mL. In [4], this compound had a Cmax of 258 ng/mL. The compound also had an EC50 with RSV A2 of 59 nM.

In the case of `CC(C)Nc1ccc(-c2c(C(=O)N[C@H]3N=C(c4ccccc4)c4ccccc4NC3=O)cnn2C2CCOCC2)c(F)n1` [Example 23, 5-[2-Fluoro-6-(propan-2-ylamino)pyridin-3-yl]-1-(oxan-4-yl)-N-[(3S)-2-oxo-5-phenyl-1,3-dihydro-1,4-benzodiazepin-3-yl]pyrazole-4-carboxamide], the CC50 in “Cell cytotoxicity CC50” is > 25 µM. In addition, the half-life in [2] was 96.7 min; in series [3], 127 min; in series [4] (setting [8]) it was 132 min; in series [4] (setting [9]) it was 180 min; in [5], > 186 min. Moreover, the “C 8 h” value in series [4] is 146 ng/mL. In addition, the Vd in [4] (IV 1 mg/kg) amounted to 1.7 L/kg. In series [4] (IV 1 mg/kg), this compound yielded a clearance of 12.2 mL/min/kg. Besides, the bioavailability in series [4] (IV 1 mg/kg, PO 10 mg/kg) was determined as 34.7%. Further, the AUC(0-t) in series [4] (PO 10 mg/kg) amounted to 4630 ng·h/mL. This compound also showed a Cmax in series [4] of 930 ng/mL. Further, the EC50 in the series on RSV A2 came out at 50 nM.

As for `CCNc1ccc(-c2c(C(=O)N[C@H]3N=C(c4ccccc4)c4ccccc4NC3=O)cnn2C2CCOCC2)c(F)n1` [Example 42, 5-[6-(Ethylamino)-2-fluoropyridin-3-yl]-1-(oxan-4-yl)-N-[(3S)-2-oxo-5-phenyl-1,3-dihydro-1,4-benzodiazepin-3-yl]pyrazole-4-carboxamide], the half-life in series [1] came out at 194 min; in series [2] it was 72.3 min; in [3] it was 100 min; in series [5] it was 421 min; in series [6], 85.8 min; in series [7] it was 480 min. In the series “Cell cytotoxicity CC50”, the CC50 is > 25 µM. In addition, a half-maximal effect with RSV A2 (EC50) was put at 41 nM.

As to `CCOc1nn(CC)c(-c2ccccc2F)c1C(=O)N[C@H]1N=C(c2ccccc2)c2cccc(F)c2NC1=O` [Example 55, 3-Ethoxy-1-ethyl-N-[(3S)-9-fluoro-2-oxo-5-phenyl-1,3-dihydro-1,4-benzodiazepin-3-yl]-5-(2-fluorophenyl)pyrazole-4-carboxamide], the results for the half-life in series [1], in series [6] and in series [7] were 41.3 min, 26.5 min and 39 min, respectively. Also, the CC50 in the series “Cell cytotoxicity CC50” is > 25 µM. In addition, the EC50 with RSV A2 came out at 33 nM.

`CN1CCC(n2ncc(C(=O)N[C@H]3N=C(c4ccccc4)c4cccc(F)c4NC3=O)c2-c2ccc(NC3CC3)nc2F)CC1` [Example 57, 5-[6-(Cyclopropylamino)-2-fluoropyridin-3-yl]-N-[(3S)-9-fluoro-2-oxo-5-phenyl-1,3-dihydro-1,4-benzodiazepin-3-yl]-1-(1-methylpiperidin-4-yl)pyrazole-4-carboxamide]: the half-life in [1] came out at 84.7 min; in series [6], 116 min; in series [7] it was 175 min. In “Cell cytotoxicity CC50”, the CC50 was > 9.41 µM. This compound also gave an EC50 with RSV A2 of 84 nM.

(Values after US20220409629A1, “BENZODIAZEPINE DERIVATIVES FOR TREATING A RESPIRATORY SYNCYTIAL VIRUS (RSV) INFECTION” (priority 2019, published 2022).)
